# Laboratory results taken from patent US8227406B2, “Antimicrobial peptides” (Dermagen AB, priority 2006, dated 2012).
# How the values were obtained:
# [1] = system: Staphylococcus aureus ATCC29213; assay: Radial diffusion assay (RDA), S. aureus; format: cell-based; details: Table 1b; 10 mM Tris Hcl (pH 7.4)
# Protocol: (§1) Peptides. Peptides were from Sigma-Genosys, generated by a peptide synthesis platform (PEPscreen®, Custom Peptide Libraries, SigmaGenosys). Yield was ˜1-6 mg, and peptide length 20 amino acids. MALDI-ToF Mass Spectrometry was perfomed on these peptides. Average Crude Purity of 20mers was ˜60%. Peptides were supplied lyophilized and in a 96-well tube rack. Prior to biological testing the PEPscreen peptides were diluted in dH2O (5 mM stock), and stored at −20 C. This stock solution was used for the subsequent experiments.
# (§2) Eschericia coli ATCC25922, Staphylococcus aureus ATCC29213, and the fungal isolate Candida albicans ATCC90028 were obtained from the Department of Bacteriology, Lund University Hospital.
# (§3) Radial diffusion assays (RDA) were performed essentially as described earlier (Lehrer, R. I., Rosenman, M., Harwig, S. S., Jackson, R. & Eisenhauer, P. (1991) Ultrasensitive assays for endogenous antimicrobial polypeptides, J Immunol Methods. 137, 167-73). Briefly, bacteria (E. coli, S. aureus) or fungi (C. albicans) were grown to midlogarithmic phase in 10 ml of full-strength (3% w/v) trypticase soy broth (TSB) (Becton-Dickinson, Cockeysville, Md.). The microorganisms were washed once with 10 mM Tris, pH 7.4. 4×10^6 bacterial cfu or 1×10^5 fungal cfu was added to 5 ml of the underlay agarose gel, consisting of 0.03% (w/v) TSB, 1% (w/v) low-electroendoosmosistype (Low-EEO) agarose (Sigma, St Louise Mo.) and a final concentration of 0.02% (v/v) Tween 20 (Sigma). The underlay was poured into a Ø 85 mm petri dish. After agarose solidified, 4 mm-diameter wells were punched and 6 μl of test sample was added to each well. Plates were incubated at 37° C. for 3 hours to allow diffusion of the peptides. The underlay gel was then covered with 5 ml of molten overlay (6% TSB and 1% Low-EEO agarose in dH2O). Antimicrobial activity of a peptide is visualized as a clear zone around each well after 18-24 hours of incubation at 37° C. for bacteria and 28° C. for Candida albicans. Other examples of peptides that were screened and found to show an increased effect against the above mentioned microorgansism are listed below. Some of the results are found in table 1c showing the effects against C. albicans, table 1d E. coli and table 1e S. aureus.
# [2] = system: Eschericia coli ATCC25922; assay: Radial diffusion assay (RDA), E. coli; format: cell-based, Escherichia coli; details: Table 1b; 10 mM Tris Hcl (pH 7.4)
# Protocol: as §1, §2, §3
Substance,RDA values (mm) S. aureus ATCC 29213 [1] [mm],RDA values (mm) E. coli ATCC 25922 [2] [mm]
DDDDDDDDDD [Peptide T59],0.00,0.00
DDDDDDDDDDWWW [Peptide T60],0.00,0.00
GKHWWW [Peptide T30],0.00,3.05
GKKNGKHWWW [Peptide T26],1.76,7.47
HWWW [Peptide T32],0.00,0.00
KGKKNGKHWWW [Peptide T25],2.55,8.87
KHWWW [Peptide T31],0.00,1.48
KKKKKKKKKK [Peptide T46],1.32,5.94
KKKKKKKKKKWWW [Peptide T47],4.46,7.48
KKKKKKKKKWWW [Peptide T48],7.19,9.26
KKKKKKKKWWW [Peptide T49],5.48,7.90
KKKKKKKWWW [Peptide T50],4.90,7.82
KKKKKKWWW [Peptide T51],4.16,8.12
KKKKKWWW [Peptide T52],3.43,9.01
KKKKWWW [Peptide T53],2.85,8.11
KKKWWW [Peptide T54],2.02,4.93
KKNGKHWWW [Peptide T27],1.68,7.56
KKWWW [Peptide T55],1.01,2.95
KNGKHWWW [Peptide T28],0.00,4.99
KNKGKKNGKH [Peptide T1],0.00,2.56

Substance,RDA values (mm) S. aureus ATCC 29213 [1] [mm],RDA values (mm) E. coli ATCC 25922 [2] [mm]
KNKGKKNGKHGSGSPWWW [Peptide T61],1.52,8.64
KNKGKKNGKHWWW [Peptide T2],4.23,8.90
KNKGKKNGKHWWW [Peptide T23],3.26,8.65
KNKGKKNGKHWWWWW [Peptide T13],5.58,7.93
KNKGKKNGKWWW [Peptide T3],4.07,9.16
KNKGKKNGKWWWWW [Peptide T14],5.07,7.90
KNKGKKNGWWWWW [Peptide T15],3.90,8.03
KNKGKKNWWW [Peptide T5],2.85,8.36
KNKGKKNWWWWW [Peptide T16],3.83,9.09
KNKGKKWWW [Peptide T6],2.79,8.16
KNKGKKWWWWW [Peptide T17],3.88,8.98
KNKGKWWW [Peptide T7],0.00,6.84
KNKGKWWWWW [Peptide T18],1.82,8.21
KNKGWWW [Peptide T8],0.00,2.94
KNKGWWWWW [Peptide T19],1.10,4.49
KNKWWW [Peptide T9],0.00,2.73
KNKWWWWW [Peptide T20],0.55,4.22
KNWWW [Peptide T10],0.00,2.69
KNWWWWW [Peptide T21],0.00,1.70
KWWW [Peptide T11],0.00,0.00

Substance,RDA values (mm) S. aureus ATCC 29213 [1] [mm],RDA values (mm) E. coli ATCC 25922 [2] [mm]
KWWW [Peptide T56],0.75,4.48
KWWWWW [Peptide T22],0.00,2.18
NGKHWWW [Peptide T29],0.00,0.00
NKGKKNGKHWWW [Peptide T24],2.41,8.44
SNSGSSNGSH [Peptide T43],0.00,0.00
SNSGSSNGSHWWW [Peptide T44],0.00,0.00
SSSSSSSSSS [Peptide T57],0.00,0.00
SSSSSSSSSSWWW [Peptide T58],0.00,0.00
WWW [Peptide T12],0.00,0.00
WWWK [Peptide T42],0.00,0.00
WWWKN [Peptide T41],0.00,0.00
WWWKNK [Peptide T40],0.00,0.00
WWWKNKG [Peptide T39],0.00,0.00
WWWKNKGK [Peptide T38],0.00,1.42
WWWKNKGKK [Peptide T37],0.11,3.28
WWWKNKGKKN [Peptide T36],0.66,5.04
WWWKNKGKKNG [Peptide T35],0.00,1.57
WWWKNKGKKNGK [Peptide T34],0.43,4.94
WWWKNKGKKNGKH [Peptide T33],2.20,7.95
WWWSNSGSSNGSH [Peptide T45],0.00,0.00
